Values quoted from earlier work as cited in PubChem BioAssay AID1259409 (Chemical Carcinogenesis Research Information System (CCRIS), 2018).

System: rodent chemically induced tumor inhibition, incidence and multiplicity
Test: CCRIS tumor inhibitor studies

SMILES: CC[C@@H](C)[C@H](NC(=O)CN)C(=O)N[C@H](C(=O)N[C@@H](CCC(=O)O)C(=O)N[C@@H](CCC(N)=O)C(=O)N[C@H]1CSSC[C@H]2NC(=O)[C@H]([C@H](C)CC)NC(=O)[C@H](CO)NC(=O)[C@H]([C@H](C)O)NC(=O)[C@H](CSSC[C@H](NC(=O)[C@H](CC(C)C)NC(=O)[C@H](Cc3c[nH]cn3)NC(=O)[C@H](CCC(N)=O)NC(=O)[C@@H](NC(=O)[C@@H](NC(=O)[C@@H](N)Cc3ccccc3)C(C)C)C(N)=O)C(=O)NCC(=O)N[C@@H](CO)C(=O)N[C@@H](Cc3c[nH]cn3)C(=O)N[C@@H](CC(C)C)C(=O)N[C@@H](C(C)C)C(=O)N[C@@H](CCC(=O)O)C(=O)N[C@@H](C)C(=O)N[C@@H](CC(C)C)C(=O)N[C@@H](Cc3ccc(O)cc3)C(=O)N[C@@H](CC(C)C)C(=O)N[C@@H](C(C)C)C(=O)N[C@H](C(=O)NCC(=O)N[C@@H](CCC(=O)O)C(=O)N[C@@H](CCCNC(=N)N)C(=O)NCC(=O)N[C@@H](Cc3ccccc3)C(=O)N[C@@H](Cc3ccccc3)C(=O)N[C@@H](Cc3ccc(O)cc3)C(=O)N[C@H](C(=O)N3CCC[C@H]3C(=O)N[C@@H](CCCCN)C(=O)N[C@H](C(=O)O)[C@H](C)O)[C@H](C)O)CSSC[C@@H](C(=O)N[C@@H](CC(N)=O)C(=O)O)NC(=O)[C@H](Cc3ccc(O)cc3)NC(=O)[C@H](CC(N)=O)NC(=O)[C@H](CCC(=O)O)NC(=O)[C@H](CC(C)C)NC(=O)[C@H](CCC(N)=O)NC(=O)[C@H](Cc3ccc(O)cc3)NC(=O)[C@H](CC(C)C)NC(=O)[C@H](CO)NC2=O)NC1=O)C(C)C
- tumour outcome (control, treated, inhibition, significance) (Carcinogen: 7,12-DIMETHYLBENZ[A]ANTHRACENE, 57-97-6, Dose [Inhibitor]: 0, 10 I.U. FOR 7 D BEGINNING 3 D PRIOR TO CARCINOGEN DOSE (STUDY DURATION: 6 MO), Route [Inhibitor]: SUBCUTANEOUS, Species: RAT, Strain/Sex: SWISS/FEMALE, Target Tissue: Type of Lesion: MAMMARY GLAND: TUMOR, Dose [Carcinogen]: 20 MG IN 4 ML OLIVE OIL ONCE, Promoter: NONE USED): 22/33 (67%), 6/32 (19%), 72%, not calculated

SMILES: Oc1cc(O)c2c(c1)O[C@H](c1ccc(O)c(O)c1)[C@H](O)C2
- tumour outcome (control, treated, inhibition, significance) (Carcinogen: 3-METHYLCHOLANTHRENE, 56-49-5, Dose [Inhibitor]: 0, 2 MG IN 0.1 ML STERILE SALINE 1/D FOR 5 CONSECUTIVE D BEGINNING 30 D POST CARCINOGEN TREATMENT (STUDY DURATION: 20 WK, Route [Inhibitor]: GAVAGE, Species: MOUSE, Strain/Sex: SWISS/MALE, Target Tissue: Type of Lesion: INJECTION SITE: SARCOMA, Dose [Carcinogen]: 745 NMOL IN 0.1 ML DMSO 1/D FOR 2 CONSECUTIVE D, Promoter: NONE USED): 100%, 33%, 67%, p<0.01
- tumour outcome (control, treated, inhibition, significance) (Carcinogen: 7,12-DIMETHYLBENZ[A]ANTHRACENE, 57-97-6, Dose [Inhibitor]: 0, 2 MG IN 0.1 ML DMSO 2/WK FOR 6 WK ADMINISTERED 30 MIN POST EACH PROMOTER DOSE (STUDY DURATION: 12 WK), Route [Inhibitor]: DERMAL, Species: MOUSE, Strain/Sex: SWISS/MALE, Target Tissue: Type of Lesion: SKIN: PAPILLOMA, Dose [Carcinogen]: 450 NMOL IN 0.1 ML DMSO ONCE, Promoter: CROTON OIL, 8001-28-3): 17/30 (57%), 14/30 (47%), 18%, not significant

SMILES: C=CC(C)(O)CCC=C(C)C (stereo not drawn)
- tumour outcome (control, treated, inhibition, significance) (Carcinogen: AZOXYMETHANE, 25843-45-2, Dose [Inhibitor]: 0, 5 MG/G IN DIET FOR 22 WK BEGINNING 3 D POST LAST CARCINOGEN DOSE (STUDY DURATION: 25 WK), Route [Inhibitor]: ORAL, Species: RAT, Strain/Sex: F344/MALE, Target Tissue: Type of Lesion: DUODENUM: ADENOCARCINOMA, Dose [Carcinogen]: 15 MG/KG BW 2/WK FOR 3 WK, Promoter: NONE USED): 50%, 26%, 48%, not significant
- tumour outcome (control, treated, inhibition, significance) (Carcinogen: AZOXYMETHANE, 25843-45-2, Dose [Inhibitor]: 0, 5 MG/G IN DIET FOR 22 WK BEGINNING 3 D POST LAST CARCINOGEN DOSE (STUDY DURATION: 25 WK), Route [Inhibitor]: ORAL, Species: RAT, Strain/Sex: F344/MALE, Target Tissue: Type of Lesion: LARGE BOWEL: ADENOMATOUS POLYP, Dose [Carcinogen]: 15 MG/KG BW 2/WK FOR 3 WK, Promoter: NONE USED): 82%, 79%, 4%, not significant

SMILES: CCCCOCCOCCOCc1cc2c(cc1CCC)OCO2
- tumour outcome (control, treated, inhibition, significance) (Carcinogen: N-NITROSODIETHYLAMINE, 55-18-5, Dose [Inhibitor]: 400 MG/KG IN 0.2 ML SESAME OIL (TOTAL VOL 0.1 ML) 2 HR PRIOR TO EACH CARCINOGEN DOSE (STUDY DURATION: 21 WK), Route [Inhibitor]: SUBCUTANEOUS, Species: HAMSTER, Strain/Sex: SYRIAN/MALE, Target Tissue: Type of Lesion: LUNG: ADENOMA, ADENOCARCINOMA, Dose [Carcinogen]: 17.8 MG/KG IN 0.9% SALINE (TOTAL VOL 0.1 ML) 2/WK FOR 20 WK, Promoter: NONE USED): 6/10 (60%), 0/10 (0%), 100%, p<0.01

SMILES: CC/C=C\C/C=C\C/C=C\CCCCCCCC(=O)OC[C@H](CO[C@@H]1O[C@H](CO[C@H]2O[C@H](CO)[C@H](O)[C@H](O)[C@H]2O)[C@H](O)[C@H](O)[C@H]1O)OC(=O)CCCCCCCCCCCCC
- tumour outcome (control, treated, inhibition, significance) (Carcinogen: 7,12-DIMETHYLBENZ[A]ANTHRACENE, 57-97-6, Dose [Inhibitor]: 0, 85 NMOL IN 0.1 ML ACETONE 2/WK FOR 20 WK APPLIED 1 HR PRIOR TO EACH PROMOTER DOSE (STUDY DURATION: 21 WK), Route [Inhibitor]: DERMAL, Species: MOUSE, Strain/Sex: ICR/FEMALE, Target Tissue: Type of Lesion: SKIN: PAPILLOMA, Dose [Carcinogen]: 390 NMOL IN 0.1 ML ACETONE ONCE, Promoter: 12-O-TETRADECANOYLPHORBOL-13-ACETATE, 16561-29-8): 100%, 68%, 32%, p<0.05

SMILES: CCCCCCCCC/C=C/C=C/C=C/C=C/C=C/C=C/C(=O)OCC
- tumour outcome (control, treated, inhibition, significance) (Carcinogen: AZOXYMETHANE, 25843-45-2, Dose [Inhibitor]: 0, 0.7 ML 2/WK FOR DURATION OF STUDY BEGINNING 1 D PRIOR TO FIRST CARCINOGEN DOSE (STUDY DURATION: 36 WK), Route [Inhibitor]: GAVAGE, Species: RAT, Strain/Sex: F344/MALE, Target Tissue: Type of Lesion: COLON/RECTUM: ADENOMA OR CARCINOMA, Dose [Carcinogen]: 15 MG/KG 1/WK FOR 2 WK, Promoter: NONE USED): 20/40 (50%), 15/33 (45%), 10%, not significant
